Laboratory results as given in patent US4080466A, “Pharmaceutical compositions containing 4-hydroxyl-1,3-dithiolan-2-ylidene malonates” (Nihon Nohyaku Co., Ltd., priority 1976, dated 1978).

What was measured:
[1] = test system: chronic liver damage induced by thioacetamide; experiment: Therapeutic Effect on Chronic Liver Damage (thioacetamide), BSP test; assay type: in vivo, rats (Spraque Dawley strain); conditions: normal diet + 0.2% of compound after 12 times TAA 100 mg/kg
Description: In the tests of this Example, TAA was repeatedly administered to animals to prepare test animals suffering from somewhat chronic liver damages, and then the present compounds were administered thereto to know whether or not the compounds were effective against chronic hepatitis.
The degree of the liver damage and the therapeutic effects of the compounds were evaluated according to BSP test. The BSP test is a method in which BSP (sulfobromophthalein sodium), a dye known to be quickly metabolized in and excreted from the liver, is intravenously injected into animals and, after a definite period of time, the blood is taken out to measure the amount of BSP remaining in the plasma. In case the animals are suffering from the lever damage, the dye will remain, according to the degree of the damage, at the stage where a major portion of BSP metabolized and excreted in the case of normal animals.
Five groups of rats (Spraque Dawley strain) were treated as follows:
Group A: The rats were orally administered with 100 mg/kg of thioacetamide,at 3 days intervals for 36 days (12 times of the administration), then were submitted for 10 days to a normal diet.
Group B: The rats were orally administered with 100 mg/kg of thioacetamide at 3 days intervals for 36 days (12 times of the administration), then were submitted for 10 days to the normal diet + 0.2% of compound 4.
Group C: The rats were orally administered with 100 mg/kg of thioacetamide at 3 days intervals for 36 days (12 times of the administration), then were submitted for 10 days to the normal diet + 0.2% of compound 2.
Group D: The rats were orally administered with 100 mg/kg of thioacetamide at 3 days intervals for 36 days (12 times of the administration), then were submitted for 10 days to the normal diet + 0.2% of anethol trithion.
Group E: The rats were submitted to the normal diet as the control.
Five rats were sacrificed from each group at appropriate intervals for BSP (sulfobromophthalein) test, the results of which were shown as amounts (mg) of BSP remaining in 1 dl of plasma.

[2] = test system: acute liver damage induced by allyl alcohol; experiment: Protective Effect on Acute Liver Damage associated with Periportal Necrosis (allyl alcohol), BSP test; assay type: in vivo, mouse (dd-strain); conditions: 100 mg/kg oral, 6 h before allyl alcohol (0.075 mg/kg oral); 24 h
Description: The compund of this invention or anethol trithion was orally administered to the male mouse (4 week-old, dd-strain) at the dose of 100 mg/kg. Six hours after it, allyl alcohol was orally administered at the dose of 0.075 mg/kg. Twenty four hours after it, the animals were sacrificed to collect blood samples.

[3] = test system: acute hepatitis induced by D-galactosamine; experiment: Protective Effect on Acute Hepatitis associated with Mesenchymal Reaction and Discrete Lobular Necrosis (D-galactosamine); assay type: in vivo, rat (SD strain); conditions: 100 mg/kg oral, 6 h before D-galactosamine 600 mg/kg i.p. (+ 300 mg/kg)
Description: D-Galactosamine is a compound which induces a discrete lobular necrosis associated with mesenchymal reaction similar to the change observed in human viral hepatitis, so that it is frequently used in producing a model for viral hepatitis.
The compound of this invention or anethol trithion was administered orally to the male rat (SD strain) at the dose of 100 mg/kg. Six hours after it, D-galactosamine was intraperitoneally administered at the dose of 600 mg/kg. Four hours after it, an additional 300 mg/kg was administered intraperitoneally. Eight hours after it, the animals were sacrificed to collect the blood samples. P-GPT activity and triglyceride in the liver were measured to evaluate the effect of the compound of this invention.

[4] = test system: excretion of biliary salt; experiment: Cholagogic Action: effect on the excretion of biliary salt; assay type: in vivo, rats (SD-JCL strain); conditions: 200 mg/kg oral, before treatment = 100
Description: (§1) Drugs as choleresis are used for patients to improve bile flow. In the present example, the effect of the compound of the invention on the quantities of bile and biliary salt is investigated. Methods:
(§2) The male rats (4 week-aged, SD-JCL strain) were anesthetized with sodium pentobarbital (37.5 mg/kg, intraperitoneal injection). The abdominal cavity was opened through a midline incision. The common bile duct was catheterized with polyethylene tube o.d. 0.8 mm. The catheter was brought to the outside through the abdominal incision would prior to closing. Bile was collected from the catheter continuously with time intervals of one hour. The quantity of bile produced in one hour was determined by weighing and that of biliary salt was determined by enzymatic method (Ikagaku Jikkenho Koza 1B, Biological Constituents II, edited by Tamio YAMAKAWA). The amount of biliary salt was represented in the term of cholic acid equivalent.
(§3) In the representation of the results, the quantities of bile and biliary salt produced in one hour prior to the administration of drug were taken as 100. The compound of this invention was orally administered at the dose of 200 mg/kg. As reference, anethol trithion was used.

bile flow = experiment: Cholagogic Action: effect on bile flow; assay type: in vivo, rats (SD-JCL strain); conditions: 200 mg/kg oral; for Bile flow: before treatment = 100
Description: as §1, §2, §3

[5] = test system: acute liver damage induced by carbon tetrachloride; experiment: Protective Effect on Acute Liver Damage associated with Centrilobular Necrosis (carbon tetrachloride); assay type: in vivo, mice (dd-strain); conditions: 250 mg/kg oral, average of 5 to 6 mice; for Liver damage index: 6 h before CCl4 (0.05 ml/kg oral), score 0 Normal, 2 slight, 4 clear, 6 heavy damage; for p-GPT (plasma glutamic-pyruvic transaminase activity): 6 h before CCl4, 24 h after CCl4, values over 1,000 regarded as 1,000
Text: Carbon tetrachloride (CCl4) administration induces centrilobular necrosis of the liver associated with loss of diphosphopyridine nucleotide, hepatic glycogen, coenzyme A and increase in neutral fat. Release of several enzymes from the hepatocytes, and increase of enzyme activities in the plasma are recognized as the result of the damage of the liver. A suitable means for evaluating the degree of damage induced by CCl4 or the degree of protection afforded by drugs is to study the plasma glutamic-pyruvic transminase (p-GPT) activity.
Methods: The test compounds were dissolved or suspended in olive oil and administered orally at the dose of 250 mg/kg to the mice (Four-week-old male mice-dd strain). After 6 hours, CCl4 was administered orally (0.05 ml/kg as olive oil solution). Animals were killed 24 hours after CCl4 administration, and the liver was grossly observed. The plasma was obtained by centrifugation. Activities of p-GPT were determined by the method of Reitman and Frankel and expressed in Karmen units.
Score for liver damage index was as follows:
4 Clearly observable damage
Each figure indicates average of 5 to 6 mice. Values of p-GPT over 1,000 Karmen unit regarded as 1,000 for calculation of average for convenience.

[6] = test system: fatty liver induced by ethionine; experiment: Effect on Fatty Liver (ethionine); assay type: in vivo, mouse (dd-strain); conditions: 24 h, 10 animals
Text: But, the fatty liver is grouped into a couple of patterns from the mechanism of lipid accumulation or metabolism of lipoprotein in the liver. Ethionine is a typical example which induces first pattern of fatty liver. It inhibits RNA and protein synthesis and destructs polysome of the liver cell. Fatty liver is induced by inhibition of the protein synthesis and disturbance of lipoprotein secretion.
Usually, fatty liver is closely related to the accumulation of triglyceride in the liver. In the present example, the degree of fatty liver and protective or therapeutic effect against the fatty liver was evaluated by measurement of triglyceride content in the liver. Methods:
The compounds of this invention and methionine were independently dissolved or suspended into olive oil and administered orally to 4 week-old male mouse (dd-strain) at the dose of 250 mg/kg. One hour before it, simultaneously to it, or one hour after it, ethionine dissolved in equimolar NaOH solution was administered intraperitoneally at the dose of 200 mg/kg. Twenty four hours after the administration of ethionine, the animals were sacrificed and triglyceride content in the liver was determined by chromotropic acid method.

[7] = test system: fatty liver induced by carbon tetrachloride; experiment: Therapeutic Effect on Fatty Liver (carbon tetrachloride); assay type: in vivo, rats (SD strain)
Description: Methods: […] The treated animals were left for 3 days after the last administration to maximize the manifestation of fatty liver. […] It was orally given everyday for 10 days at the dose of 50 or 250 mg/kg. On the 11th day, the animals were sacrificed. The therapeutic effect was evaluated by determining the content of liquid in the liver (triglyceride and total lipid) and examining the histopathological changes. Triglyceride and total lipid were determined colorimetrically by chromotropic acid method and Bragdon's oxidation method, respectively. Indices for the histopathological change is as follows: […]

**Q.** For `COc1ccc(-c2cc(=S)ss2)cc1` [Anethol trithion, reference compound], which “BSP remaining in plasma” value ([1]; 2 days) is on record?
**A.** 9.7 ± 4.1 mg/dL

**Q.** What about the “BSP remaining in plasma” value ([1]; 5 days) of the same compound?
**A.** 7.3 ± 3.4 mg/dL

**Q.** What about the “BSP remaining in plasma” value ([1]; 10 days) of the same compound?
**A.** 0.9 ± 0.1 mg/dL

**Q.** What about the “BSP (residual quantity)” value [2] of the same compound?
**A.** 19.3 ± 4.6

**Q.** And the Triglyceride in liver [3]?
**A.** 9.2 ± 1.5 mg/g

**Q.** And the p-GPT [3]?
**A.** 106 ± 30 Karmen unit

**Q.** What about the “Excretion of biliary salt” value ([4]; 1 hour after treatment) of the same compound?
**A.** 108 ± 12

**Q.** And the “Excretion of biliary salt” value ([4]; 2 hours after treatment)?
**A.** 89 ± 11

**Q.** What about the “Excretion of biliary salt” value ([4]; 3 hours after treatment) of the same compound?
**A.** 66 ± 3.8

**Q.** What about the “Excretion of biliary salt” value ([4]; 4 hours after treatment) of the same compound?
**A.** 47 ± 3.0

**Q.** What about the “Excretion of biliary salt” value ([4]; 5 hours after treatment) of the same compound?
**A.** 3.3 ± 4.0

**Q.** What about the Bile flow (bile flow; 1 hour after treatment) of the same compound?
**A.** 114 ± 15

**Q.** What about the Bile flow (bile flow; 2 hours after treatment) of the same compound?
**A.** 114 ± 15

**Q.** And the Bile flow (bile flow; 3 hours after treatment)?
**A.** 102 ± 11

**Q.** And the Bile flow (bile flow; 4 hours after treatment)?
**A.** 95 ± 7.7

**Q.** And the “Quantity of total excreted bile relative to control” value (bile flow; 5 hours after administration)?
**A.** 1.10 times

**Q.** What about the Bile flow (bile flow; 5 hours after treatment) of the same compound?
**A.** 86 ± 6.6

**Q.** What about the Liver damage index [5] of the same compound?
**A.** 1.6

**Q.** What about the “p-GPT (plasma glutamic-pyruvic transaminase activity)” value [5] of the same compound?
**A.** 38 Karmen units

**Q.** Which Liver damage index [5] does the source give for `ClC(Cl)(Cl)Cl` [Carbon tetrachloride, reference compound] here?
**A.** 5.2

**Q.** What about the “p-GPT (plasma glutamic-pyruvic transaminase activity)” value [5] of the same compound?
**A.** > 1,000 Karmen units

**Q.** How did the Liver damage index [5] turn out when `CC(C)COC(=O)C(C(=O)OCC(C)C)=C1SCC(O)S1` (centres unmarked) [Compound 3, Diisobutyl 4-hydroxy-1,3-dithiolan-2-ylidene malonate] was run?
**A.** 0.3

**Q.** What about the “p-GPT (plasma glutamic-pyruvic transaminase activity)” value [5] of the same compound?
**A.** 52 Karmen units

**Q.** `CCOC(=O)C(C(=O)OCC)=C1SCC(OC(C)=O)S1` (centres unmarked) [Compound 5, Diethyl 4-acetoxy-1,3-dithiolan-2-ylidene malonate] was tested. Which Liver damage index [5] did it give?
**A.** 1.2

**Q.** And the “p-GPT (plasma glutamic-pyruvic transaminase activity)” value [5]?
**A.** 106 Karmen units

**Q.** What does the source list for `CCOC(=O)C(C(=O)OCC)=C1SCC(OC(=O)CC)S1` (centres unmarked) [Compound 6, Diethyl 4-propionyloxy-1,3-dithiolan-2-ylidene malonate]?
**A.** Liver damage index [5]: 1.4; p-GPT (plasma glutamic-pyruvic transaminase activity) [5]: 210 Karmen units

**Q.** What does the source list for `CC(=O)OC1CSC(=C(C(=O)OC(C)C)C(=O)OC(C)C)S1` (centres unmarked) [Compound 7, Diisopropyl 4-acetoxy-1,3-dithiolan-2-ylidene malonate]?
**A.** Liver damage index [5]: 0.4; p-GPT (plasma glutamic-pyruvic transaminase activity) [5]: 80 Karmen units

**Q.** What does the source list for `CCC(=O)OC1CSC(=C(C(=O)OC(C)C)C(=O)OC(C)C)S1` (centres unmarked) [Compound 8, Diisopropyl 4-propionyloxy-1,3-dithiolan-2-ylidene malonate]?
**A.** Liver damage index [5]: 0.6; p-GPT (plasma glutamic-pyruvic transaminase activity) [5]: 62 Karmen units

**Q.** Which results are given for `CCCOC(=O)C(C(=O)OCCC)=C1SCC(OC(C)=O)S1` (centres unmarked) [Compound 9, Di-n-propyl-4-acetoxy-1,3-dithiolan-2-ylidene malonate]?
**A.** Liver damage index [5]: 0.8; p-GPT (plasma glutamic-pyruvic transaminase activity) [5]: 102 Karmen units

**Q.** With `CCSCC[C@H](N)C(=O)O` [Ethionine, reference compound] as the compound, how does the Triglyceride ([6]; ethionine alone (positive control), 200 mg/kg i.p.) read?
**A.** 15.6 ± 1.34 mg/g-liver

**Q.** `CSCC[C@H](N)C(=O)O` [Methionine, reference compound] was tested. Which Total lipid ([7]; 250 mg/kg oral, 10 days) did it give?
**A.** 156.8 ± 23.8 mg/g-liver

**Q.** What about the Triglyceride ([7]; 250 mg/kg oral, 10 days) of the same compound?
**A.** 42.7 ± 7.2 mg/g-liver

**Q.** And the “therapeutic effect on fatty liver (in words)” value ([7]; 50 or 250 mg/kg oral)?
**A.** hardly exhibited a therapeutic effect

**Q.** What about the “Degree of fatty liver (histopathological examination)” value ([7]; dose not printed in Table 8, one symbol per animal) of the same compound?
**A.** ± ± ++ ++ ++ + +

**Q.** And the Triglyceride ([6]; 250 mg/kg oral, simultaneous with ethionine (0 hr))?
**A.** 10.8 ± 0.88 mg/g-liver

**Q.** For `NC(=O)CCCCC1CCSS1` (centres unmarked) [Thioctic acid amide, reference compound], which Liver damage index [5] is on record?
**A.** 4.8

**Q.** And the “p-GPT (plasma glutamic-pyruvic transaminase activity)” value [5]?
**A.** 763 Karmen units
